Legend:
[1] = system: TNFα release from human peripheral blood mononuclear cells; experiment: Inhibition of TNFα release from LPS-stimulated human peripheral blood mononuclear cells (TNFα screen); assay type: cell-based; conditions: PBMC, 18 hours incubation, TNFα in supernatant by ELISA
Method: Venous blood is collected from healthy volunteers and the mononuclear cells purified by centrifugation through Histopaque (Ficoll) cushions. TNFα production from these cells is stimulated by addition of lipopolysaccharide. After 18 hours incubation in the presence of LPS, the cell supernatant is removed and the concentration of TNFα in the supernatant determined by ELISA.
(§1) Data are presented below for the Examples in which the TNFα and PDE4 inhibition are presented as IC50 values in nM.

PDE4 = PDE4 inhibition: hydrolysis of tritium labelled cAMP to AMP, SPA bead scintillation counting; assay type: biochemical; conditions: tritium labelled cAMP incubated with PDE4, yttrium silicate SPA beads
Method: The PDE4 inhibitory activity of the nicotinamide derivatives of the formula (I) is determined by the ability of compounds to inhibit the hydrolysis of cAMP to AMP by PDE4 (Thompson J W, Teraski W L, Epstein P M, Strada S J., “Assay of nucleotidephosphodiesterase and resolution of multiple molecular forms of the isoenzyme”, Advances in cyclic nucleotides research, edited by Brooker G, Greengard P, Robinson G A. Raven Press, New York 1979, 10, p. 69-92). Tritium labelled cAMP is incubated with PDE4. Following incubation, the radiolabelled AMP produced is able to bind yttrium silicate SPA beads. These SPA beads subsequently produce light that can be quantified by scintillation counting. The addition of a PDE4 inhibitor prevents the formation of AMP from cAMP and counts are diminished. The IC50 of a PDE4 inhibitor can be defined as the concentration of a compound that leads to a 50% reduction in counts compared to the PDE4 only (no inhibitor) control wells.
as §1

Compound: O=C(N[C@H]1CC[C@@H](NS(=O)(=O)c2cccc3cccnc23)CC1)c1cccnc1OC1CCSCC1 [Example 65]
- IC50 [1]: 0.02 nM
- IC50 (PDE4): 1.8 nM

Compound: O=C(N[C@H]1CC[C@@H](NS(=O)(=O)c2c(O)ccc3nsnc23)CC1)c1cc(F)cnc1OC1CCSCC1 [Example 74, Syn-5-Fluoro-N-[4-(5-hydroxy-benzo[1,2,5]thiadiazole-4-sulfonylamino)-cyclohexyl]-2-(tetrahydro-thiopyran-4-yloxy)-nicotinamide]
- IC50 [1]: 1 nM
- IC50 (PDE4): 3.5 nM
